Values quoted from earlier work, collected in US20080286234A1, “Method for treating demyelinating diseases” (priority 2007, published 2008).

Conditions: MS patients; for reduction in the rate of MS relapses / decrease in relapse rate: vs. placebo

Substance	effect on exacerbations in clinical trials (clinical trials)	effect on new, gadolinium-enhanced brain lesions on MRI scans (clinical trials)	reduction in the rate of MS relapses / decrease in relapse rate	slowed the progression of disability (as measured by EDSS) [%]
glatiramer acetate	reduce the number and severity of exacerbations	reduce the number of new, gadolinium-enhanced brain lesions	30-35%	
natalizumab: monoclonal antibody against integrin-(4 used to treat multiple sclerosis and Crohn's disease			67%	42
